Activity calls are given as the source filed them.
How the values were obtained:
[1] = Counterscreen for inhibitors of Trypanosoma brucei methionyl tRNA synthetase (MetRS): Luminescence-based cell-based high throughput dose response assay to identify compounds that are cytotoxic to Jurkat human T lymphocyte cells.; type: functional
[2] = molecular target: T1, Methionyl-tRNA synthetase, putative (Trypanosoma brucei brucei, UniProt Q38C91); type: functional, Trypanosoma brucei brucei strain 927/4 GUTat10.1
[3] = molecular target: T1, Methionyl-tRNA synthetase, putative; type: functional, Trypanosoma brucei brucei strain 927/4 GUTat10.1; remark: listed apart in the source
Vero = experiment: Vero cell toxicity, dose response, cytotoxicity control, plate reader, cherry-pick samples (AID 687020); type: functional, cell-based; details: Chlorocebus sabaeus
[4] = Luminescence-based cell-based high throughput dose response assay to identify activators of the DAF-12 from the parasite S. stercoralis (ssDAF-12).; type: functional
Paired box protein Pax-8 = Paired box protein Pax-8 (Homo sapiens, UniProt Q06710); experiment: inhibitors of PAX8-driven TPO luciferase reporter, dose response, RMG-I cells, cherry-pick (AID 687027); type: functional, cell-based;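 further: luciferase reporter driven by Pax8 target thyroperoxidase promoter measured by SteadyGlo luminescence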
Protein S100-A4 = Protein S100-A4 (Homo sapiens, UniProt P26447); experiment: S100A4-myosin IIA binding inhibitor potency, dose response, biochemical, fluorescence polarization, cherry-picked hits (AID 687001); type: functional
Cytochrome P450 1A2 = molecular target: T2, Cytochrome P450 1A2 (Homo sapiens, UniProt P05177);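 further: PubChem cytochrome P450 panel assay, CYP1A2 panel member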
T2 sequence (P05177 whole entry): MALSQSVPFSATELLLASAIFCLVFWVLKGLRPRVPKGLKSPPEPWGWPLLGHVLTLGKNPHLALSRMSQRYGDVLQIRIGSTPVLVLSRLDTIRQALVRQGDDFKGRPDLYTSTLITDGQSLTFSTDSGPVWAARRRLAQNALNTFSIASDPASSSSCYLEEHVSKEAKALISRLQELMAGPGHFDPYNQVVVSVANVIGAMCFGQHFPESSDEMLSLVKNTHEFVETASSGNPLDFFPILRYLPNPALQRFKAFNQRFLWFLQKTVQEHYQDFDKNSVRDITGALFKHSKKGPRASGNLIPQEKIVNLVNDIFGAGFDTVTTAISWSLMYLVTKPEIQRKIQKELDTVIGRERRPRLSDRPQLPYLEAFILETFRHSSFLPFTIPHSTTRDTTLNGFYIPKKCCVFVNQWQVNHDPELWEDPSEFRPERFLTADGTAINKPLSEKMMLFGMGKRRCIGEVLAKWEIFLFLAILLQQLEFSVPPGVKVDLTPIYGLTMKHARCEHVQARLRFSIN

cells = type: functional
[5] = molecular target: T3, Sentrin-specific protease 1 (Homo sapiens, UniProt Q9P0U3); experiment: Dose response confirmation of small molecule inhibitors of the catalytic domain of the SUMO protease, SENP1 in a FRET assay.; type: functional; details: read-out: IC50_Mean
[6] = molecular target: T3, Sentrin-specific protease 1; experiment: potency of human SENP1 inhibitors, dose response, biochemical, kinetic FRET (AID 651697); type: functional; details: read-out: IC50_Mean
[7] = THP-1 cell cytotoxicity, dose response, cytotoxicity control for non-replicating M. tuberculosis project (AID 489025); type: functional
Beta-lactamase [8] = molecular target: Beta-lactamase (Salmonella choleraesuis (strain SC-B67), UniProt Q5J463)
Beta-lactamase [9] = molecular target: Beta-lactamase (Pseudomonas aeruginosa, UniProt Q79MP6);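 further: biochemical dose-response test of metallo-beta-lactamase enzyme inhibition, read out by epi-absorbance; purified recombinant IMP-1 metallo-beta-lactamase with nitrocefin as substrate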
[10] = HepG2 cell cytotoxicity, dose response, cytotoxicity control for Shn3 inhibitor project, CellTiter-Glo, cherry-picked (AID 624134); type: functional, cell-based
[11] = control 3'UTR Renilla luciferase suppression, dose response, counter-screen for Shn3 inhibitor project, cell-based, Clone20-Shn3RL, cherry-picked (AID 624133); type: functional
BHK-21 = experiment: BHK-21 cell toxicity, dose response, cytotoxicity control, plate reader, cherry-pick samples (AID 687030); type: functional, cell-based; details: Mesocricetus auratus
[12] = Shn3 3'UTR reporter inhibitors, dose response, cell-based, Clone20 osteoblasts, firefly luciferase, cherry-picked (AID 624132); type: functional;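 further: firefly luciferase luminescence from reporter carrying the Shn3 3'UTR in osteoblasts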
A549 = experiment: A549 cell toxicity, dose response, cytotoxicity control, plate reader, cherry-pick samples (AID 687028); type: functional, cell-based; details: Homo sapiens
INS1 = experiment: beta cell apoptosis inhibitors, cytokine rescue, dose response, luminescence, retest (AID 449756); type: functional, cell-based; details: Rattus norvegicus;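 further: cell death triggered by IL-1 beta plus TNF-alpha plus IFN-gamma mixture; protective hits raise ATP signal compared with cytokine alone wells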
[13] = molecular target: T4, Sentrin-specific protease 8 (Homo sapiens, UniProt Q96LD8); type: functional
T4 sequence (Q96LD8 whole entry): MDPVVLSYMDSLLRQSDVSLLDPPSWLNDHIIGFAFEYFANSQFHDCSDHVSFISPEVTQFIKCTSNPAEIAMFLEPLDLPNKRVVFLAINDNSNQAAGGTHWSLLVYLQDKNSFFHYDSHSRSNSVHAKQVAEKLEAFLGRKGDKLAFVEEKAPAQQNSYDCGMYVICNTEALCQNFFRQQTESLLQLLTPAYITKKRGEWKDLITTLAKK

[14] = molecular target: T4, Sentrin-specific protease 8; type: functional; remark: listed apart in the source
Caspase-3 = molecular target: T5, Caspase-3 (Homo sapiens, UniProt P42574); experiment: Dose-response confirmation of uHTS inhibitor hits of Sentrin-Specific Protease 8 in a Caspase-3 Fluorescence assay.; type: functional
T5 sequence (P42574 whole entry): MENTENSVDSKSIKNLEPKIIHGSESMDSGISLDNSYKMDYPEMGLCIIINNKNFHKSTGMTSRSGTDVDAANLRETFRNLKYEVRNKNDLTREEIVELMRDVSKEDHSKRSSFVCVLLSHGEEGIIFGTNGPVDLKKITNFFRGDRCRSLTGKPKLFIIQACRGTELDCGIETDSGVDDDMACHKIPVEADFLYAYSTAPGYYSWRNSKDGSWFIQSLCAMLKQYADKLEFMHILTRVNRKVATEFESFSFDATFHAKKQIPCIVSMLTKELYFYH

T1 sequence (Q38C91 whole entry): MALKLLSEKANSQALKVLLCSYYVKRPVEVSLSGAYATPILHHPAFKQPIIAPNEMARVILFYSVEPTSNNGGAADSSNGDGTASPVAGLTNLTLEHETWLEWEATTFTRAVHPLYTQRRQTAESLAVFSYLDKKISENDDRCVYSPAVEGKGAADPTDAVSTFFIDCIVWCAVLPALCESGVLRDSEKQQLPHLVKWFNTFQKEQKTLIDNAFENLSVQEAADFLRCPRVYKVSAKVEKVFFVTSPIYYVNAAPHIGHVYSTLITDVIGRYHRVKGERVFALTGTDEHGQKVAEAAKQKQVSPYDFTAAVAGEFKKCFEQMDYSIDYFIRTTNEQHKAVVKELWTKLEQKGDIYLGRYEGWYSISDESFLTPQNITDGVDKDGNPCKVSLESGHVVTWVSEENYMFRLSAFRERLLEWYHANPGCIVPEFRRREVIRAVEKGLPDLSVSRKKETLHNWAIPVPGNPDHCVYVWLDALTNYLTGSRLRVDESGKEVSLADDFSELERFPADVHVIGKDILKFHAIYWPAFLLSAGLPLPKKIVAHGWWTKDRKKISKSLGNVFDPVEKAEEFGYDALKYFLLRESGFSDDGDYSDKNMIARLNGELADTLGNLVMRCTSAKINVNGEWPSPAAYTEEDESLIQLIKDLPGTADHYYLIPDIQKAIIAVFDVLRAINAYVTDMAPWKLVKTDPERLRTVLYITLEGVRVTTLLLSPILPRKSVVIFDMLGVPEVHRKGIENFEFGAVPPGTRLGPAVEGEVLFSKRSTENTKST
T3 sequence (Q9P0U3 whole entry, the tested form may be a part): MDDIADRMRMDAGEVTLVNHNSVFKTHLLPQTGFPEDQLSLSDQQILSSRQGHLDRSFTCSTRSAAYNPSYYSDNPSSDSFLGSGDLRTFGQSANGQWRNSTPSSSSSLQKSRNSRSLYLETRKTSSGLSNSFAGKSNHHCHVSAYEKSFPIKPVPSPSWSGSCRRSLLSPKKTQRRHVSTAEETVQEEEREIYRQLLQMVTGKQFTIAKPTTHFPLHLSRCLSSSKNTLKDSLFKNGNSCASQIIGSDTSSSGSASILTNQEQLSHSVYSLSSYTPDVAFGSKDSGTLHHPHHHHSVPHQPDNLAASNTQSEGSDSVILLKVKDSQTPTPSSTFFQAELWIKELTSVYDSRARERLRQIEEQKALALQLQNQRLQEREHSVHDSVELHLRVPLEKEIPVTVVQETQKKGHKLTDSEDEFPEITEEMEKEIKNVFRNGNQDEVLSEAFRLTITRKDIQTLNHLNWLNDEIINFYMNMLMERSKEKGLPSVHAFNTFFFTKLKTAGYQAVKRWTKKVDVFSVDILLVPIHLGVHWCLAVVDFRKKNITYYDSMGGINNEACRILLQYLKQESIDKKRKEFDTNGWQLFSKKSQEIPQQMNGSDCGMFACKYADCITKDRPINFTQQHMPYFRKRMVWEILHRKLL
Chain of Protein S100-A4 (P26447 whole entry): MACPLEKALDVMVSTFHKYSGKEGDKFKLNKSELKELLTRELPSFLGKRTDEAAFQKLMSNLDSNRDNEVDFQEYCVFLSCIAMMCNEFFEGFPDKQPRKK
Chain of Beta-lactamase (Pseudomonas aeruginosa, UniProt Q79MP6) (Q79MP6 whole entry): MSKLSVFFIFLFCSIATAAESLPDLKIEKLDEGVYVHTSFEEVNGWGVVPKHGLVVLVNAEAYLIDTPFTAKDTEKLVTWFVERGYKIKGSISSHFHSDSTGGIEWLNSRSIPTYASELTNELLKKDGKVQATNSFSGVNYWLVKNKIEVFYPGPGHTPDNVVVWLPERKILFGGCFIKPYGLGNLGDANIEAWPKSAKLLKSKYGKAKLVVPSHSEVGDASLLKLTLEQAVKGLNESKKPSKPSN
Chain of Paired box protein Pax-8 (Q06710 whole entry): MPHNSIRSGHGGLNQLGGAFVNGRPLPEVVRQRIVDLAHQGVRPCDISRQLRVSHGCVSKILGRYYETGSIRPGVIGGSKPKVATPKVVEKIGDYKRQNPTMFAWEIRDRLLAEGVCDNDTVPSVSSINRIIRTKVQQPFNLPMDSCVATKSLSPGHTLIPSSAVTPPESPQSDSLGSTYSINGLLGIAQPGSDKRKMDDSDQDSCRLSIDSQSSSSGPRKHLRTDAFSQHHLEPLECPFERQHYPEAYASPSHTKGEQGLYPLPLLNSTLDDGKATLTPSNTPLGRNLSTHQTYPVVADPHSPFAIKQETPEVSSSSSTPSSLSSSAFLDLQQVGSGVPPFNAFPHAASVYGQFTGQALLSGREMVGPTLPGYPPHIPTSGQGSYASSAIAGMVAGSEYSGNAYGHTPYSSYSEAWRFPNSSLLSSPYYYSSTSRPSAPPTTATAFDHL
Chain of Beta-lactamase (Salmonella choleraesuis (strain SC-B67), UniProt Q5J463) (Q5J463 whole entry): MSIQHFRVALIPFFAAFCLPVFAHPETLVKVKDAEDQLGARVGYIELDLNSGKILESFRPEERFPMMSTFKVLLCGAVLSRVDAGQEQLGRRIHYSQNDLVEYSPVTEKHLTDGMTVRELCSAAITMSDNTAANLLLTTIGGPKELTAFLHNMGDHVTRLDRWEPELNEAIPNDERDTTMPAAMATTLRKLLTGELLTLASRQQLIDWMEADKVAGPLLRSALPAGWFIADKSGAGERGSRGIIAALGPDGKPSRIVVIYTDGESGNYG

Cc1cc(C)c(O)c(-c2cc(C(=O)NCCc3ccc(S(N)(=O)=O)cc3)[nH]n2)c1
IC50 [1]: 83.3 µM (inactive)
IC50 [2]: 70.9 µM (inactive)
IC50 [3]: 39.5 µM (inactive)

COc1cc(C)ccc1OCc1cc(C(=O)NCCN2CCCC(O)C2)no1 (stereo not drawn)
AC50 (Vero): 30 µM (active)

CC(=O)[C@@]1(O)Cc2c(O)c3c(c(O)c2[C@H](O[C@H]2C[C@H](N)[C@H](O)[C@H](C)O2)C1)C(=O)c1ccccc1C3=O
IC50 [4]: > 67.5 µM (inactive)
AC50 (Paired box protein Pax-8): 3.77 µM (active)
AC50 (Protein S100-A4): 0.412 µM (active)
AC50 (Cytochrome P450 1A2): 20 µM (inconclusive)

O=C(Nc1nccs1)c1cc2cc(Cl)ccc2oc1=O
IC50 (cells): 1.37 µM (active)
IC50 [5]: 3.49 µM (active)
IC50 [6]: 1.84 µM (active)

N=C1/C(=C\c2coc3ccccc3c2=O)C(=O)N=C2SC=CN12
CC50 [7]: > 40 µM (active)
IC50 (Beta-lactamase [8]): > 59.6 µM (inactive)
IC50 (Beta-lactamase [9]): 36.4 µM (inactive)

CC(=O)NC(c1cc(Cl)c2cccnc2c1O)C(C)C (stereo not drawn)
AC50 [10]: 5.13 µM (active)
AC50 [11]: 2.71 µM (active)
AC50 (BHK-21): 21.6 µM (active)
AC50 [12]: 2.96 µM (active)
AC50 (A549): 23.5 µM (active)
AC50 (INS1): 1.76 µM (active)

COc1ccc(NC(=O)[C@@H]2[C@@H]3C(=O)N(C4CCCCC4)C(=O)[C@@H]3C3c4ccccc4C=CN32)cc1 (stereo partly drawn)
IC50 [13]: 4.79 µM (active)
IC50 [14]: 16.3 µM (active)
IC50 (Caspase-3): 10.8 µM (active)

Reference: ChEMBL document CHEMBL1201862, “PubChem BioAssay data set” (2004)
